The CheMixHub ionic liquid set

Assay: xn = mol fraction of the nth substance listed

CC[n+]1ccn(C)c1.COS(=O)(=O)[O-] + CS(C)=O
viscosity [mPa·s], 100 kPa
Conditions	298.15 K	303.15 K	308.15 K	313.15 K
x1 = 0.0164	4.16	4.01	3.89	3.67
x1 = 0.0398	7.35	6.81	6.27	5.93
x1 = 0.0602	9.97	9.2	8.55	8.08
x1 = 0.0941	14.18	12.83	12.06	11.28
x1 = 0.1236	17.62	15.85	14.5	13.71
x1 = 0.1519	20.91	18.59	16.92	16.1
x1 = 0.2143	27.4	24.2	21.94	20.73
x1 = 0.2927	34.95	30.43	27.28	25.55
x1 = 0.3737	41.96	36.24	32.09	29.71
x1 = 0.4429	47.4	40.66	35.66	32.71
x1 = 0.5298	53.6	45.69	39.54	35.84
x1 = 0.6072	58.8	49.5	42.55	38.23
x1 = 0.6927	64.3	53.7	45.77	40.24
x1 = 0.7486	67.7	56.3	47.7	41.57
x1 = 0.8263	72.7	60	50.3	43.32
x1 = 0.8944	77	63.2	52.7	44.81
x1 = 0.9396	80.1	65.5	54.3	45.96
x1 = 0.9755	82.5	67.4	55.7	46.87
x1 = 1	84.3	68.7	56.7	47.6

OCCCCCO + C[N+](C)(C)CCO.O=S(=O)([N-]S(=O)(=O)C(F)(F)F)C(F)(F)F
Conditions	viscosity [mPa·s]
333.15 K, 101 kPa, x1 = 1	20.3

CCCCCC[n+]1ccn(C)c1.[Br-] + C[NH2+]CCC=C1c2ccccc2CCc2ccccc21.[Cl-] + O
viscosity [mPa·s], 100 kPa
Conditions	288.15 K	298.15 K	308.15 K	318.15 K
x2 = 0, x1 = 0.0001802	1.159	0.926	0.762	0.645
x2 = 0, x1 = 0.0007203	1.165	0.934	0.77	0.643
x2 = 0, x1 = 0.00126	1.171	0.942	0.776	0.66

CCCCCC[n+]1ccn(C)c1.O=S(=O)([N-]S(=O)(=O)C(F)(F)F)C(F)(F)F + ClC(Cl)Cl
electrical conductivity [S/m], 101 kPa
Conditions	x1 = 0.196	x1 = 0.335	x1 = 0.956	x1 = 0.97	x2 = 0.006
288.5 K	0.462	–	–	0.146	–
318.5 K	–	0.845	0.469	–	0.459

CCCCCC[n+]1ccn(C)c1.[Br-] + NC(N)=O + O
298.15 K, 100 kPa
Conditions	viscosity [mPa·s]
x2 = 0, x3 = 0.9008	6.89
x2 = 0, x3 = 0.9487	2.88
x2 = 0.008076, x3 = 0.8927	6.77
x2 = 0.008492, x3 = 0.9402	2.97
x2 = 0.01609, x3 = 0.8847	6.7
x2 = 0.01695, x3 = 0.9318	2.98
x2 = 0.02496, x3 = 0.9237	2.95
x2 = 0.02678, x3 = 0.9219	2.96
x2 = 0.03154, x3 = 0.8693	6.78
x2 = 0.03322, x3 = 0.9155	2.98
x2 = 0.03874, x3 = 0.8621	6.76
x2 = 0.0408, x3 = 0.9079	3.02

CCCCCCCC(=O)[O-].c1c[nH+]c[nH]1 + O
101.3 kPa
Conditions	viscosity [mPa·s]
293.15 K, x2 = 0.3042	53.53
293.15 K, x2 = 0.4091	50.43
293.15 K, x2 = 0.6017	39.83
298.15 K, x2 = 0.5119	37.4
298.15 K, x2 = 0.7995	18.69
303.15 K, x2 = 0.3042	34.6
303.15 K, x2 = 0.6643	24.26
313.15 K, x2 = 0.1964	24.17
313.15 K, x2 = 0.8154	10.93
318.15 K, x2 = 0.0989	23.17
318.15 K, x2 = 0.3042	19.22
318.15 K, x2 = 0.6017	16.16
318.15 K, x2 = 0.8154	9.92
323.15 K, x2 = 0	25.33
323.15 K, x2 = 0.0989	19.77
323.15 K, x2 = 0.3042	16.85
323.15 K, x2 = 0.8154	9.3

CCCCCCCCOS(=O)(=O)[O-].CC[n+]1ccn(C)c1 + O
101 kPa, frequency 0.0005 MHz
Conditions	electrical conductivity [S/m]
263.15 K, x2 = 0.8103	0.26
288.15 K, x2 = 0.7822	0.678
298.15 K, x2 = 0.8236	1.14
303.15 K, x2 = 0.8236	1.32
303.15 K, x2 = 0.8384	1.52
313.15 K, x2 = 0.8103	1.65
323.15 K, x2 = 0.8236	2.2
333.15 K, x2 = 0.7822	2.4
333.15 K, x2 = 0.8236	2.77
343.15 K, x2 = 0.7822	2.9

101 kPa
Conditions	viscosity [mPa·s]
298.15 K, x2 = 0.8236	63.5
303.15 K, x2 = 0.8236	48.9
303.15 K, x2 = 0.8384	46
313.15 K, x2 = 0.8103	32.07
333.15 K, x2 = 0.7822	15.7
343.15 K, x2 = 0.7822	11.31

CCCCCC[n+]1ccn(C)c1.O=S(=O)([N-]S(=O)(=O)C(F)(F)F)C(F)(F)F + O
Conditions	electrical conductivity [S/m]
295.15 K, 101 kPa, x2 = 0.233	0.29

CCCCCC[n+]1ccn(C)c1.[Br-] + O
viscosity [mPa·s]
Conditions	288.15 K	298.15 K	308.15 K	318.15 K
100 kPa, x1 = 0.0001802	1.159	0.926	0.762	0.645
100 kPa, x1 = 0.0007203	1.165	0.934	0.77	0.643
100 kPa, x1 = 0.00126	1.171	0.942	0.776	0.66
100 kPa, x2 = 0.9008	–	6.89	–	–
101 kPa, x1 = 1.982e-05	1.136	–	0.722	–
101 kPa, x1 = 3.243e-05	1.138	0.891	0.723	–
101 kPa, x1 = 6.667e-05	1.142	0.896	0.726	–
101 kPa, x1 = 0.001844	–	0.948	–	–
101 kPa, x1 = 0.003654	–	1.005	–	–
101 kPa, x1 = 0.005425	–	1.053	–	–
101 kPa, x1 = 0.007153	–	1.101	–	–

CCCC[n+]1ccn(C)c1.COS(=O)(=O)[O-] + O
viscosity [mPa·s], 101 kPa
Conditions	283.15 K	293.15 K	303.15 K	313.15 K	323.15 K	333.15 K	343.15 K
x2 = 0.0004	527	273.8	153.5	93.1	60.24	41.07	29.3
x2 = 0.0999	432	229.3	132.8	82.6	54.53	37.8	27.72
x2 = 0.194	356.2	193.6	114.5	72.55	48.65	34.25	25.14
x2 = 0.3979	182.1	104.3	64.51	42.47	29.48	21.44	16.88
x2 = 0.6025	63.13	38.93	25.65	17.84	12.97	9.806	8.289
x2 = 0.8005	19.72	13.01	9.056	6.609	5.006	3.929	3.175
x2 = 0.8993	8.179	5.646	4.113	3.137	2.483	2.029	1.707

CCCC[n+]1ccn(C)c1.N#C[C-](C#N)C#N + O
viscosity [mPa·s], 101 kPa
Conditions	278.15 K	288.15 K	298.15 K	308.15 K	318.15 K	328.15 K	333.15 K	338.15 K	348.15 K	358.15 K
x2 = 0	76.6	43.55	27.32	18.45	13.21	9.91	–	7.71	6.18	5.08
x2 = 0.01382	–	–	–	–	–	9.9	8.72	–	6.245	–
x2 = 0.0458	67.8	39.3	25.05	17.19	12.48	9.46	–	7.43	6.01	4.966
x2 = 0.1008	–	31.74	20.8	14.54	10.68	8.18	–	6.47	5.261	4.375
x2 = 0.175	47.79	28.85	19.03	13.37	9.89	7.62	–	6.06	4.944	4.125
x2 = 0.2116	44.3	26.98	17.9	12.67	9.43	7.3	–	5.83	4.783	4.001
x2 = 0.2885	37.68	23.28	15.62	11.15	8.36	6.51	–	5.232	4.309	3.618
x2 = 0.4273	28.9	18.24	12.43	8.99	6.81	5.351	–	4.329	3.586	3.028
x2 = 0.5034	25.05	15.99	11	8.01	6.106	4.82	–	3.916	3.273	2.748
x2 = 0.5607	21.78	14.03	9.71	7.1	5.428	4.295	–	3.496	2.912	2.472

CC[n+]1ccn(C)c1.COS(=O)(=O)[O-] + O
101 kPa
Conditions	viscosity [mPa·s]
288.15 K, x2 = 0.0023	137.7
288.15 K, x2 = 0.8948	4.861
298.15 K, x2 = 0.0023	83.9
298.15 K, x2 = 0.0887	80.2
308.15 K, x2 = 0.2235	42.26
308.15 K, x2 = 0.4163	24.36
308.15 K, x2 = 0.8948	2.817
318.15 K, x2 = 0.0023	37.81
328.15 K, x2 = 0.0023	27.34
338.15 K, x2 = 0.4163	10.89
338.15 K, x2 = 0.6106	5.924
